Assay results: US20250136722A1, “CYTOTOXICITY TARGETING CHIMERAS” (GLAXOSMITHKLINE INTELLECTUAL PROPERTY DEVELOPMENT LIMITED, priority 2021, published 2025)
“And” between values parts separate entries of the source, which are not always exact repeats. Identical values can stand only once.

Tests used:
[1] = target: Anti-cotinine antibody (SEQ ID NO: 11 / SEQ ID NO: 12, rabbit variable region with human IgG1 Fc domain); experiment: Binding of anti-cotinine antibody to ARM compounds by SPR, Biacore T200, 37° C. (Example 202); conditions: pH 7.4, rabbit variable region/human IgG1 Fc antibody captured on protein A
Procedure, shortened: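 Run at 37° C. in 10 mM HEPES pH 7.4, 150 mM NaCl, 0.005% P20, 1% DMSO. Compound titrated from 200 nM (five 3-fold steps) over protein A-captured antibody, with 200/2000 s association/dissociation. 1:1 kinetic fit gave kon, koff, Kd and residence time (1/koff); pKd averaged where runs repeated.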

[2] = target: T1, CHOK1 cells engineered to overexpress human CCR2 (Homo sapiens, UniProt P41597); experiment: Antibody dependent cellular cytotoxicity (ADCC) reporter assay (Example 199); format: cell-based; conditions: with anti-cotinine antibody SEQ ID NO: 11/12, CHOK1-human CCR2 target cells, Jurkat FcγRIIIa NFAT-luciferase reporter cells, 12-18 hours; for EC50: read-out: ADCC Reporter Assay pEC50 (converted)
T1 construct: expressed in transfected cells; host or cells: CHOK1 cells
Procedure, shortened: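 Potency is reported as pEC50 from a nonlinear fit, averaged over runs, using luciferase signal divided by that of compound-free wells. The readout comes from NFAT-luciferase Jurkat cells expressing FcγRIIIa, mixed for 12–18 h with human CCR2-overexpressing CHOK1 cells, 1 pM–10 μM ARM compound and 0.01–200 μg/mL Fc-enhanced anti-cotinine IgG1.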

[3] = target: human alpha1 nicotinic acetylcholine (nACh) receptor (Homo sapiens, UniProt P02708+Q07001); experiment: Nicotinic acetylcholine receptor antagonism assay, IONFlux automated patch clamp (Example 203); format: cell-based; conditions: for Emax at 100 µM: maximum percentage antagonism at maximum concentration tested 100 μM; for Emax at 100 µM / Emax at 10 µM: read-out: Maximum Response (%); for IC50: nAChR antagonism, ACh stimulated, patch clamp; for Emax at 10 µM: maximum percentage antagonism at maximum concentration tested 10 μM
Procedure: Cells expressing human alpha1 nicotinic acetylcholine (nACh) receptor (nAChR) were washed and dissociated using Trypsin containing buffer. Cells were then washed and seeded at a density of 3-5 million cells/mL and allowed to grow for 3 days. Then, 60-80 μL of cells were added to plates and incubated with dose response of an ARM compound of Formula (I) with a top concentration of either 10 μM or 100 μM. The receptor was then stimulated via addition of acetylcholine (ACh) and activation of the receptor was monitored via the IONFlux automated patch clamp system. IonFlux Data Analyzer software was utilized to perform leak subtraction and measure (min) peak current amplitude.
Data processing: (1) Current values recorded for vehicle only applications in individual traps/patterns were subtracted from corresponding current amplitude values for control, test article and control+test article. (2) Control response was calculated as % of the average response of the 3rd out of total 3 ACh (10 mM) applications alone. In rare situations, if the 3rd ACh response was obscured due to technical artifacts, the 2nd and/or 1 st ACh (10 mM) application was considered as control. The peak current amplitude generated in the presence of each test article concentration was then used to calculate the % inhibition as compared to control response (10 mM ACh alone). These estimates were further corrected for vehicle response and run down corrected by normalizing with time matched control responses (10 mM ACh alone). The corrected percentages were then fit with a non-linear function in GraphPad Prism 6 (or later versions) to determine the […].
Exclusion criteria: (i) any n's with poor recording quality, (ii) control current amplitude <500 pA or (iii) significant outliers, as determined by the Grubbs' test.
ARMs compounds of Formula (I) of the invention were tested for antagonism of the nAChR in the above assay in […] experimental runs and the results are shown in Table 7 below. Antagonistic activity of the compounds of Formula (I) of the invention is reported as an IC50 value (half maximal inhibitory concentration) and the maximum percentage antagonism observed at the highest concentration of compound of Formula (I) tested, as indicated in Table 7. For compounds tested in more than one experimental run, the IC50 value is reported as an average.

Sequence of human alpha1 nicotinic acetylcholine (nACh) receptor (P02708 21-457): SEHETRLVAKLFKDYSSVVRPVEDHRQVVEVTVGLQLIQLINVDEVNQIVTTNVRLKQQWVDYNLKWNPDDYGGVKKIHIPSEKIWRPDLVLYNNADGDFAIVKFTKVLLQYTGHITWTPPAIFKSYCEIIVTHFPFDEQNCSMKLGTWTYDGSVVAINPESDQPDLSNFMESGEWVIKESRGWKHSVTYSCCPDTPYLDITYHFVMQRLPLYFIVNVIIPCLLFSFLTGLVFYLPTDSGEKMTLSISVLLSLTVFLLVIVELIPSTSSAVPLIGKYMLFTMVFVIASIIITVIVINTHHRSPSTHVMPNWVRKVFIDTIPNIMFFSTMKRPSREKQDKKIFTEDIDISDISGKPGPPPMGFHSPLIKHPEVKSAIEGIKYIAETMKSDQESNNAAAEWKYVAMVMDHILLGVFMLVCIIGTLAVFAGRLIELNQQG
Sequence of human alpha1 nicotinic acetylcholine (nACh) receptor (P11230 24-501 partner): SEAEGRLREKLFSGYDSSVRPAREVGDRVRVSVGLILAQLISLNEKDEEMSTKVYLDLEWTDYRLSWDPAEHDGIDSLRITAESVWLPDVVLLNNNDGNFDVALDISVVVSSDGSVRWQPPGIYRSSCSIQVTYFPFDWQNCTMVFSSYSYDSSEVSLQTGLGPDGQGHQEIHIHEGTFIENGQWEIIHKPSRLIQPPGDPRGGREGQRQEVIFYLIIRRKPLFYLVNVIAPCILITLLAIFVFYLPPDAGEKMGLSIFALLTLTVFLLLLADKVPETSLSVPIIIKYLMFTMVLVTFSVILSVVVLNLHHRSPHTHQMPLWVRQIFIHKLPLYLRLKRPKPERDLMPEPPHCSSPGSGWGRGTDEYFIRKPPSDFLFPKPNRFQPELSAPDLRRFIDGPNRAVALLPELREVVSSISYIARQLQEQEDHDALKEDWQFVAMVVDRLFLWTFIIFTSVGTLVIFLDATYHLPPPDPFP
Sequence of human alpha1 nicotinic acetylcholine (nACh) receptor (Q07001 22-517): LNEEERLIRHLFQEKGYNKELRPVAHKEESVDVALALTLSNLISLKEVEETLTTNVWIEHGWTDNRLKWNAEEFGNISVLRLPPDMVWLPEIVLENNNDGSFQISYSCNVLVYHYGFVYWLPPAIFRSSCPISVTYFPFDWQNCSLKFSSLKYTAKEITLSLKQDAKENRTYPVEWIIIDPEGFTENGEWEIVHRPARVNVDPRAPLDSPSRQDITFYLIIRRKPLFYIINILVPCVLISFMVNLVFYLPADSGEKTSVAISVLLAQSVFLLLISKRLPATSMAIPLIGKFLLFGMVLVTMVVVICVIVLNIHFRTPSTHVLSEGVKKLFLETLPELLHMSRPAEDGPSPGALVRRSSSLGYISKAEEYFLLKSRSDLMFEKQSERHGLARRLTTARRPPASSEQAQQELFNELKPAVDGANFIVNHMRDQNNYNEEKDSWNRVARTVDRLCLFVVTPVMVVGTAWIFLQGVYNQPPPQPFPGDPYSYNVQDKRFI

Compound	pKd of Antibody for ARM Compound of Formula (I) [1]	EC50 [2]	Emax at 100 µM [3] [%]	IC50 [3] [nM]	Emax at 10 µM [3] [%]	ADCC Reporter Assay pEC50 [2]
CC(C)N(C)[C@@H]1CC[C@H](N2CC[C@H](Nc3ncnc4ccc(C(F)(F)F)cc34)C2=O)[C@H](NC(=O)[C@H]2CC[C@@H](NC(=O)CCCO[C@H]3CC[C@H](OCCNC(=O)[C@H]4CC(=O)N(C)[C@@H]4c4cccnc4)CC3)CC2)C1 [Example 5]	9.19	0.316 nM and 0.386 nM	40.5	> 100000	–	–
CC(C)N(C)[C@@H]1CC[C@H](N2CC[C@H](Nc3ncnc4ccc(C(F)(F)F)cc34)C2=O)[C@H](NC(=O)CCOCCNC(=O)CCCO[C@H]2CC[C@H](OCCNC(=O)[C@H]3CC(=O)N(C)[C@@H]3c3cccnc3)CC2)C1 [Example 7]	9.2515	0.182 nM	95	13700	–	–
CC(C)N(C)[C@@H]1CC[C@H](N2CC[C@H](Nc3ncnc4ccc(C(F)(F)F)cc34)C2=O)[C@H](NC(=O)[C@H]2CC[C@@H](NC(=O)CCOCCOCCNC(=O)CCNC(=O)[C@H]3CC(=O)N(C)[C@@H]3c3cccnc3)CC2)C1 [Example 16, (2S,3S)-N-(3-((2-(2-(3-(((1S,4s)-4-(((1R,2S,5R)-5-(Isopropyl(methyl)amino)-2-((S)-2-oxo-3-((6-(trifluoromethyl)quinazolin-4-yl)amino)pyrrolidin-1-yl)cyclohexyl)carbamoyl)cyclohexyl)amino)-3-oxopropoxy)ethoxy)ethyl)amino)-3-oxopropyl)-1-methyl-5-oxo-2-(pyridin-3-yl)pyrrolidine-3-carboxamide]	9.287	0.925 nM and 0.119 nM	47.8	> 100000	–	–
CC(C)N(C)[C@@H]1CC[C@H](N2CC[C@H](Nc3ncnc4ccc(C(F)(F)F)cc34)C2=O)[C@H](NC(=O)[C@H]2CC[C@@H](NC(=O)CCCC(=O)NCCCOCCCNC(=O)[C@H]3CC(=O)N(C)[C@@H]3c3cccnc3)CC2)C1 [Example 18, N^1-((1S,4s)-4-(((1R,2S,5R)-5-(Isopropyl(methyl)amino)-2-((S)-2-oxo-3-((6-(trifluoromethyl)quinazolin-4-yl)amino)pyrrolidin-1-yl)cyclohexyl)carbamoyl)cyclohexyl)-N^5-(3-(3-((2S,3S)-1-methyl-5-oxo-2-(pyridin-3-yl)pyrrolidine-3-carboxamido)propoxy)propyl)glutaramide]	9.0895	0.675 nM and 0.132 nM	44.9	> 100000	–	–
CC(C)N(C)[C@@H]1CC[C@H](N2CC[C@H](Nc3ncnc4ccc(C(F)(F)F)cc34)C2=O)[C@H](NC(=O)[C@H]2CC[C@H](NC(=O)CCCC(=O)NCCCOCCCNC(=O)[C@H]3CC(=O)N(C)[C@@H]3c3cccnc3)CC2)C1 [Example 19]	9.19	4.9 nM	34.2	> 100000	–	–
CN1C(=O)C[C@H](C(=O)NCCOCCOCCOCCC(=O)N[C@H]2CC[C@@H](C(=O)N[C@@H]3C[C@H](NC(C)(C)C)CC[C@@H]3N3CC[C@H](Nc4ncnc5ccc(C(F)(F)F)cc45)C3=O)CC2)[C@H]1c1cccnc1 [Example 23, (2S,3S)-N-(2-(2-(2-(3-(((1S,4s)-4-(((1R,2S,5R)-5-(tert-Butylamino)-2-((S)-2-oxo-3-((6-(trifluoromethyl)quinazolin-4-yl)amino)pyrrolidin-1-yl)cyclohexyl)carbamoyl)cyclohexyl)amino)-3-oxopropoxy)ethoxy)ethoxy)ethyl)-1-methyl-5-oxo-2-(pyridin-3-yl)pyrrolidine-3-carboxamide]	9.2166	1.12 nM and 2.69 nM and 0.566 nM	50.5	85200	–	–
CC(C)N(C)[C@@H]1CC[C@H](N2CC[C@H](Nc3ncnc4ccc(C(F)(F)F)cc34)C2=O)[C@H](NC(=O)[C@H]2C[C@@H](NC(=O)CCOCCOCCOCCNC(=O)[C@H]3CC(=O)N(C)[C@@H]3c3cccnc3)C2)C1 [Example 24]	9.4425	1.46 nM and 0.358 nM	59.5	85300	–	–
CC(C)N(C)[C@@H]1CC[C@H](N2CC[C@H](Nc3ncnc4ccc(C(F)(F)F)cc34)C2=O)[C@H](NC(=O)[C@H]2CC[C@@H](NC(=O)CCOCCOCCOCCNC(=O)[C@H]3CC(=O)N(C)[C@@H]3c3cccnc3)CC2)C1 [Example 28]	9.273	0.251 nM	69.9	40900	–	–
CC(C)N(C)[C@@H]1CC[C@H](N2CC[C@H](Nc3ncnc4ccc(C(F)(F)F)cc34)C2=O)[C@H](NC(=O)[C@H]2CC[C@H](NC(=O)CCOCCOCCOCCNC(=O)[C@H]3CC(=O)N(C)[C@@H]3c3cccnc3)CC2)C1 [Example 30]	9.3155	7.53 nM	–	> 10000	5.4	–
CCN1C(=O)C[C@H](C(=O)NCCOCCOCCOCCC(=O)N[C@H]2CC[C@@H](C(=O)N[C@@H]3C[C@H](N(C)C(C)C)CC[C@@H]3N3CC[C@H](Nc4ncnc5ccc(C(F)(F)F)cc45)C3=O)CC2)[C@H]1c1cccnc1 [Example 34]	9.933	1 nM	79.2	28500	–	–
CCN1C(=O)C[C@H](C(=O)NCCOCCOCCOCCC(=O)N[C@H]2CC[C@@H](C(=O)N[C@@H]3C[C@H](NC(C)(C)C)CC[C@@H]3N3CC[C@H](Nc4ncnc5ccc(C(F)(F)F)cc45)C3=O)CC2)[C@H]1c1cccnc1 [Example 35]	9.785	2.51 nM	52.3	89200	–	–
CC(C)N(C)[C@@H]1CC[C@H](N2CC[C@H](Nc3ncnc4ccc(C(F)(F)F)cc34)C2=O)[C@H](NC(=O)C2CCC(NC(=O)CCOCCNC(=O)CCOCCNC(=O)[C@H]3CC(=O)N(C)[C@@H]3c3cccnc3)CC2)C1 (stereo partly shown) [Example 48]	8.975	–	77	31800	–	9.159 and 9.168
CC(C)N(C)[C@@H]1CC[C@H](N2CC[C@H](Nc3ncnc4ccc(C(F)(F)F)cc34)C2=O)[C@H](NC(=O)[C@H]2C[C@@H](NC(=O)CCOCCOCCNC(=O)CCNC(=O)[C@H]3CC(=O)N(C)[C@@H]3c3cccnc3)C2)C1 [Example 49, (2S,3S)-N-(3-((2-(2-(3-(((1S,3s)-3-(((1R,2S,5R)-5-(Isopropyl(methyl)amino)-2-((S)-2-oxo-3-((6-(trifluoromethyl)quinazolin-4-yl)amino)pyrrolidin-1-yl)cyclohexyl)carbamoyl)cyclobutyl)amino)-3-oxopropoxy)ethoxy)ethyl)amino)-3-oxopropyl)-1-methyl-5-oxo-2-(pyridin-3-yl)pyrrolidine-3-carboxamide]	9.191	0.845 nM and 0.303 nM	56.7	80300	–	–
CC(C)N(C)[C@@H]1CC[C@H](N2CC[C@H](Nc3ncnc4ccc(C(F)(F)F)cc34)C2=O)[C@H](NC(=O)[C@H]2CC[C@@H](CC(=O)CCCOC[C@H]3CC[C@H](COCCNC(=O)[C@H]4CC(=O)N(C)[C@@H]4c4cccnc4)CC3)CC2)C1 [Example 60]	9.4635	–	–	> 10000	18.2	–
CC(C)N(C)[C@@H]1CC[C@H](N2CC[C@H](Nc3ncnc4ccc(C(F)(F)F)cc34)C2=O)[C@H](NC(=O)[C@H]2CC[C@@H](NC(=O)CCCOCCCCOCCNC(=O)[C@H]3CC(=O)N(C)[C@@H]3c3cccnc3)CC2)C1 [Example 122]	9.146	–	–	> 10000	23	–
